This note sets out measurements from US20020045780A1, “Biologically active spermidine analogues, pharmaceutical compositions and methods of treatment” (priority 1997, published 2002).

Entries after “also recorded” stand apart in the source; their conditions may differ. Counter-ions that a name gives are not always drawn. Like-named read-outs stand apart in the source and are kept apart here.

Data set [1] has as its system ornithine decarboxylase (ODC). Kind of data set: ODC activity in treated L1210 cells. Particulars: L1210, 1 μM at 4 hours. Format: cell-based, murine. The procedure, abridged: (§1)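 L1210 cells treated with triamines; ODC activity measured at 4 h and AdoMetDC at 6 h as ^14CO2 released from [^14C]-carboxyl-labeled L-ornithine (ODC) or S-adenosyl-L-methionine (AdoMetDC). Untreated cells served as controls and DEHSPM-treated cells as positive controls.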

For data set [2], the system named is spermidine/spermine acetyltransferase (SSAT). The experiment in a line: SSAT activity in treated L1210 cells. Particulars: L1210, 10 μM at 48 hours (triamine analogues). Format: cell-based, murine. The text has this:
Spermidine/spermine N^1-acetyltransferase activity was based on quantitation of [^14C]-N^1-acetylspermidine formed by acetylation of SPD with [^14C] acetyl coenzyme A according to the method of Libby et al [Biochem. Pharmacol., Vol. 38, supra]. Cells treated with DENSPM were positive controls.

In data set [3] the test system is S-adenosylmethionine decarboxylase (AdoMetDC). Kind of data set: AdoMetDC activity in treated L1210 cells. It counts as cell-based, murine. Particulars: L1210, 1 μM at 6 hours. The procedure, abridged:
as §1

Data set [4] has as its system L1210 cells. The experiment in a line: Metabolic transformation of polyamine analogues by L1210 cells. Format: in vitro ADME, murine. Conditions: 48 hours. The procedure:
The cells were washed twice with cold RPMI-1640, and the pellet was treated with 0.6 N HClO4 (1 ml/10^7 cells). Polyamine contents of the perchloric acid extracts were quantitated by HPLC of the DANSYL derivatives [Bergeron et al, J. Med. Chem., Vol. 37, supra].

Data set [5] relates to polyamine transport apparatus. The experiment in a line: Competitive uptake determination: inhibition of [3H]spermidine transport into L1210 cells. Format: cell-based, murine. Particulars: analogue inhibition of spermidine transport. A digest of the protocol:
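Analogues competed with [3H]spermidine for uptake into L1210 cells. Values are Ki, derived from Lineweaver–Burk analysis as competitive inhibition with respect to spermidine.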

The subject of data set [6] is L1210 cells. Kind of data set: Polyamine pool analysis in L1210 cells. It counts as cell-based, murine. Conditions: for activity at 100 µM / activity at 500 µM / activity at 25 µM / activity at 125 µM: Mus musculus, L1210, 48 h, % of untreated control; for Analogue: intracellular amount. A digest of the protocol:
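Cells were exposed to each analogue for 48 h at two concentrations. Washed pellets were extracted with 0.6 N HClO4 (1 ml/10^7 cells), and polyamines were quantified by HPLC of dansyl derivatives.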

The test system of data set [7] is L1210 cells. The experiment in a line: L1210 growth inhibition, IC50 determination. Format: cell-based, murine. As to the method: Murine L1210 leukemia cells (ATCC CCL 219) were maintained in logarithmic growth in RPMI-1640 medium containing 10% fetal calf serum or a semi-synthetic equivalent, NuSerum, 2% HEPES-MOPS buffer and 1 mM aminoguanidine.
[8] abbreviates: Mus musculus, L1210, 48 h, L1210, 48 hour exposure, read-out: IC50 48 hour.
The mark [9] stands for this setting: Mus musculus, L1210, 96 h, L1210, 96 hour exposure, read-out: IC50 96 hour.

As to `CCCNCCCCCNCCCCCNCCC` [DP(5,5), 4,10,16-Triazanonadecane Trihydrochloride], the “ODC activity, percent of untreated control” value (from here on “ODC activity, percent”) in data set [1] is on record as 73% of untreated control. Also, the “SSAT activity, percent of untreated control” value (“SSAT activity, percent” below) in data set [2] is on record as 90% of untreated control. The “AdoMetDC activity, percent of untreated control” value (“AdoMetDC activity, percent” below) in data set [3] is recorded as 123% of untreated control. In addition, the “Parent drug as % of total drug in the cell” value (“Parent drug as %” below) in data set [4] (500 μM analogue) is listed as 100%. For the same molecule, in data set [4] (500 μM analogue), the “Parent drug in L1210 cells” value was determined as 1300 pmols/10^6. The “N-Monodealkylation (result in words)” value is “no metabolic products were found” in data set [4] (500 μM analogue, Trihydrochloride) and “no N-depropylation” in data set [4] (500 μM analogue, listed as DP-[6,5], Trihydrochloride). The molecule further came in with a Ki in data set [5] of 87 µM. Further, in data set [6] (500 μM, 48 hours), the “PUT reduced by” value turned out to be 50%. For the same molecule, the “SPD reduced by” value in data set [6] (500 μM, 48 hours) came to 30%. Moreover, the activity at 100 µM was 59% in data set [6] (100 μM, read-out: Put); 73% in data set [6] (100 μM, read-out: Spd); 97% in data set [6] (100 μM, read-out: Spm). In addition, the activity at 500 µM was found to be 51% in data set [6] (500 μM, read-out: Put); 69% in data set [6] (500 μM, read-out: Spd); 103% in data set [6] (500 μM, read-out: Spm). Besides, the Analogue is listed as 0.86 nmol/10^6 cells in data set [6] (100 μM, 48 hours) and 1.33 nmol/10^6 cells in data set [6] (500 μM, 48 hours). In addition, the values for the IC50 in data set [7] (setting [8]) and in data set [7] (setting [9]) were over 100 µM and 6 µM, respectively.

Take `CCNCCCCNCCCCNCC` [DEHSPD, N^1,N^9-Diethylhomospermidine Trihydrochloride]: in data set [1], the “ODC activity, percent” value is 47% of untreated control. Besides, the “SSAT activity, percent” value in data set [2] is 640% of untreated control. Further, the “AdoMetDC activity, percent” value in data set [3] was 90% of untreated control. The “Parent drug as %” value in data set [4] (100 μM analogue) came out at 100%. In addition, the “Parent drug in L1210 cells” value in data set [4] (100 μM analogue) was found to be 4215 pmols/10^6. The “N-Monodealkylation (result in words)” value in data set [4] (100 μM analogue, listed as DE-[4,4], Trihydrochloride) is “do not show significant N-deethylation; also recorded: no N-deethylation”. The inhibitory constant (Ki) in data set [5] was 19 µM. For the same molecule, the activity at 25 µM worked out at 0% in data set [6] (25 μM, read-out: Put); 6% in data set [6] (25 μM, read-out: Spd); 114% in data set [6] (25 μM, read-out: Spm). Further, the activity at 125 µM in data set [6] (125 μM, read-out: Put) came out at 0%; in data set [6] (125 μM, read-out: Spd), 3%; in data set [6] (125 μM, read-out: Spm), 97%. In addition, the Analogue worked out at 4.61 nmol/10^6 cells in data set [6] (25 μM, 48 hours) and 4.69 nmol/10^6 cells in data set [6] (125 μM, 48 hours). Besides, the half-inhibitory concentration (IC50) in data set [7] (L1210, 48 hour exposure, Trihydrochloride, read-out: IC50 48 hour) is 18 to 25 µM; in data set [7] (setting [8]) it was 25 µM; in data set [7] (setting [9]), 0.3 to 0.4 µM.

For the molecule `CNCCCNCCCNC` [DMNSPD, N^1,N^7-Dimethylnorspermidine Trihydrochloride], in data set [1], the “ODC activity, percent” value is 17% of untreated control. Also, the “SSAT activity, percent” value in data set [2] was 250% of untreated control. For the same molecule, in data set [3], the “AdoMetDC activity, percent” value is reported as 41% of untreated control. Also, the “N-Monodealkylation (result in words)” value in data set [4] (100 μM analogue) is “no N-demethylation”. In addition, the “Parent drug as %” value in data set [4] (100 μM analogue) worked out at 100%. Further, the “Parent drug in L1210 cells” value in data set [4] (100 μM analogue) came to 5000 pmols/10^6. The molecule also yielded a Ki in data set [5] of 60 µM. The activity at 100 µM in data set [6] (100 μM, read-out: Put) stood at 0%; in data set [6] (100 μM, read-out: Spd) it was 9%; in data set [6] (100 μM, read-out: Spm), 58%. For the same molecule, the activity at 500 µM was 0% in data set [6] (500 μM, read-out: Put); 6 to 15% in data set [6] (500 μM, read-out: Spd); under 50% in data set [6] (500 μM, read-out: Spm). In addition, the Analogue in data set [6] (100 μM, 48 hours) amounted to 5.00 nmol/10^6 cells; in data set [6] (500 μM, 48 hours), 5.51 nmol/10^6 cells. Further, the half-maximal inhibitory concentration (IC50) in data set [7] (setting [8]) was over 100 µM; in data set [7] (setting [9]) it was 3.5 to 6 µM.

Usually Ki stands for the equilibrium dissociation constant of an inhibitor or competing ligand from its target. As a reminder, the IC50 is the concentration that gives 50% inhibition.
